Laboratory results: US20070292967A1, “Assay for Ligands of the Ecdysone Receptor” (COMMONWEALTH SCIENTIFIC AND INDUSTRIAL RESEARCH OR, priority 2003, published 2007)
pKi: −log10 of the molar value.

Tests used:
Assay type in all cases: binding
MpLBD [1] = target: T1, MpLBD (Myzus persicae, UniProt A3EZJ9); assay: miniaturized automated radioligand-based competition assay, MpLBD; details: 1.3 nM [3H]ponasterone A, no CHAPS, read-out: Ki from radioligand-based MpLBD assay
T1 sequence (A3EZJ9 70-308): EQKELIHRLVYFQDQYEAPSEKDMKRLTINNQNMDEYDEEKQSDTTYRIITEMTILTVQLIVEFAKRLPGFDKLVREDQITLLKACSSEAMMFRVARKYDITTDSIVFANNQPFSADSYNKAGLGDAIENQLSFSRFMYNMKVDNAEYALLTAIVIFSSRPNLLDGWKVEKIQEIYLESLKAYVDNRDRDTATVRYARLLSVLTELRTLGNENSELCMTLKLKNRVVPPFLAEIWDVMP
T1 sequence (A3EZK0 32-259 partner): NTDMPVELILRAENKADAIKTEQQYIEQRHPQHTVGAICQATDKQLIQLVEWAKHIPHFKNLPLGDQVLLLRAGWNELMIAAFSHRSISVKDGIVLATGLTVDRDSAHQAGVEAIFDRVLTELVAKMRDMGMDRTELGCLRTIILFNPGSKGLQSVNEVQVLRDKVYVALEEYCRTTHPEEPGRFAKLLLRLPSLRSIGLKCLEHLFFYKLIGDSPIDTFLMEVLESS
Method: (§1) Subsequently, a miniaturized and automated version of the radioligand-based competition assay was used with MpLBD and BtLBD to obtain Ki values for the non-radioactive, non-fluorescent ecdysteroids that would later be used to validate the competitive inhibition format of the FP assay. While the concept of the assay was unchanged from that described above, some aspects of its execution were different. […] The mixtures were again allowed to reach equilibrium, but this time for 4 h at room temperature. The MpLBD was then captured on a 96-filter array (Unifilter-96 GF/C, Packard, Cat. No. 6005174) and rinsed using the wash tool and vacuum block of the Biomek 2000. The back of each filter-plate was then manually sealed using a sheet of Packard BackSeal, and 25 μl Packard MicroScint-20 scintillation fluid was dispensed into each well. The top of each plate was sealed with Packard TopSeal-A and the filters were allowed to solvate overnight. […] Since the amount of bound radioactivity was at most 28% of the total present, no additional corrections for ligand depletion were applied.

MpLBD [2] = target: T1, MpLBD; assay: FP competitive inhibition assay with MB4628 tracer, MpLBD; details: 5 nM functional MpLBD, 36 nM MB4628, no CHAPS, Cheng-Prusoff; read-out: FP-derived Ki, MpLBD
Method: (§2) For competitive inhibition assays, each well contained standard FP assay buffer containing 36 nM MB4628 and either 5 nM functional MpLBD or 6 nM functional BtLBD. The BtLBD assays, but not the MpLBD ones, were routinely done in the presence of 2 mM CHAPS. The final volume of all assays were 250 μl.
(§3) The inhibitor concentration at this midpoint was deemed to be the IC50 value for the inhibitor. IC50 values were converted to Ki values using the Cheng-Prusoff equation (Cheng & Prusoff, 1973), as follows: Ki=IC50/(1+([MB4628]tot/Kd)) where [MB-4628]tot is the total concentration of MB4628 in the assay, and Kd is the dissociation constant for MB4628 with the relevant receptor under the conditions of the assay. The Kd values for use in this equation were calculated from the basic FP titration curves (FIG. 3) using the knowledge that the receptor concentration at the titration midpoint is the value at which the receptor is half-saturated with MB4628. The Kd is the free MB4628 concentration at this point, and must therefore be: Kd=[MB4628]tot−([receptor]midpoint)/2

BtLBD [3] = target: T2, BtLBD (Bemisia tabaci, UniProt A0A142K0N3); assay: miniaturized automated radioligand-based competition assay, BtLBD; details: 1.3 nM [3H]ponasterone A, no CHAPS, read-out: Ki from radioligand-based BtLBD assay
Method: as §1

BtLBD [4] = target: T2, BtLBD; assay: FP competitive inhibition assay with MB4628 tracer, BtLBD; details: 6 nM functional BtLBD, 36 nM MB4628, 2 mM CHAPS, Cheng-Prusoff; read-out: FP-derived Ki, BtLBD
Method: as §2, §3

[5] = target: MpLBD, recombinant M. persicae ecdysone receptor (Myzus persicae, UniProt A3EZJ9); assay: manual radioligand-based competitive inhibition assay ([3H]ponasterone A), MpLBD; details: for ability to compete with [3H]ponasterone A / bind to MpLBD (in words): radioligand-based assay
Method: The ability of inokosterone and fluorescent conjugates thereof to bind to recombinant M. persicae ecdysone receptor was assessed using the conventional radioligand binding assay in a competetive inhibition format (adapted from Koelle et al., 1991).
These procedures were performed manually, as follows. Assays were performed in EcR40 buffer [25 mM Hepes, 40 mM KCl, 10% glycerol, 1 mM sodium EDTA, 3 mM sodium azide] containing 0.5 mg/ml bovine serum albumin (BSA). An extract containing recombinant M. persicae edcdysone receptor, MpLBD, was prepared as described above and diluted in EcR40 buffer containing 0.5 mg/ml BSA to a concentration that generated filter counts around 10 000 cpm when the assay was done in the absence of competing ligands. […] Assays were set up to contain different final concentrations of fluorescent ecdysteroid by including the appropriate volumes of the relevant stock solutions. […] Each incubation was performed in a final volume of […] at room temperature (22° C.) for 90 min, whereupon it was held on ice until the filter adsorption/wash steps could be performed. Three 140 μl aliquots from each completed incubation were applied to glass microfibre filters (GF/C 24 mm diameter, Whatman, Cat. No. 1822024); i.e., every incubation generated three filters, each of which had been wet using 140 μl of the incubation mixture. After exposure to the liquid for 30 sec at room temperature, the wet filter was transferred to a vacuum sinter apparatus (Pyrex Filter Holder, Millipore Corp., Cat. No. XX1002500) and washed rapidly. Washing was done using 2×5 ml of ice-cold EcR40 buffer, intersperced with 3×0.5 ml buffer applied around the circumference of the filter to ensure that its edges were thoroughly rinsed. The damp filter was then transferred to a scintillation vial. When all the filters had been thus processed, 7 ml Packard InstaGel Plus scintillant was added to each scintillation vial. The sealed vials were vortexed and then incubated at room temperature for at least 2 h, during which time the filters became transparent. The vials were then scintillation counted (1 min per filter, tritium program, Packard TriCarb 2100TR scintillation counter). Datapoints were reported as the mean cpm value ±SEM for the three replicate filters arising from each incubation.
The inhibitor concentration at this midpoint was deemed to be the IC50 value for the inhibitor.

Molecule | pKi (MpLBD [1]) | pKi (MpLBD [2]) | pKi (BtLBD [3]) | pKi (BtLBD [4]) | pKi [5] | ability to compete with [3H]ponasterone A / bind to MpLBD (in words) [5]
2β,3β,14α,20R,22R,25-hexahydroxy-5β-cholest-7-ene-6-one [20-hydroxyecdysone] | 7.00 | 5.83 | 6.62 | 6.00 |  | 
CCN(CC)c1ccc2cc(NC(=O)OCC(C)CCC(O)C(C)(O)C3CCC4(O)C5=CC(=O)C6CC(O)C(O)CC6(C)C5CCC34C)c(=O)oc2c1 (stereo not drawn) [MB4592] |  |  |  |  | 7.70 | unimpaired
COc1ccc2cc(NC(=O)OCC(C)CC[C@@H](O)C(C)(O)C3CC[C@@]4(O)C5=CC(=O)[C@@H]6C[C@@H](O)[C@@H](O)CC6(C)C5CCC34C)c(=O)oc2c1 (stereo partly drawn) [MB4603] |  |  |  |  | 7.40 | unimpaired
CC(CC[C@@H](O)C(C)(O)C1CC[C@@]2(O)C3=CC(=O)[C@@H]4C[C@@H](O)[C@@H](O)CC4(C)C3CCC12C)COS(=O)(=O)c1cccc2c(N(C)C)cccc12 (stereo partly drawn) [MB4622] |  |  |  |  |  | highly effective ligand
